This note sets out measurements from paper PMC9481570, “A small molecule antagonist of SMN disrupts the interaction between SMN and RNAP II” (Nature Communications, 2022).

Common to all, as to experiment: Affinity-purification and mass spectrometry (AP-MS) chemical proteomics, all proteins;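 as to Difference: 200 µM free competitor with 20 µM biotin probe overnight in lysate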
Holding throughout (assay type): binding

The target in experiment [1] is T1, proteins displaced from immobilized biotin-Cmpd 1 pulldowns (U2OS cell lysate) (Homo sapiens, UniProt Q14980).
T1 construct: endogenous in cells; host or cells: U2OS
T1 sequence (Q14980 whole entry): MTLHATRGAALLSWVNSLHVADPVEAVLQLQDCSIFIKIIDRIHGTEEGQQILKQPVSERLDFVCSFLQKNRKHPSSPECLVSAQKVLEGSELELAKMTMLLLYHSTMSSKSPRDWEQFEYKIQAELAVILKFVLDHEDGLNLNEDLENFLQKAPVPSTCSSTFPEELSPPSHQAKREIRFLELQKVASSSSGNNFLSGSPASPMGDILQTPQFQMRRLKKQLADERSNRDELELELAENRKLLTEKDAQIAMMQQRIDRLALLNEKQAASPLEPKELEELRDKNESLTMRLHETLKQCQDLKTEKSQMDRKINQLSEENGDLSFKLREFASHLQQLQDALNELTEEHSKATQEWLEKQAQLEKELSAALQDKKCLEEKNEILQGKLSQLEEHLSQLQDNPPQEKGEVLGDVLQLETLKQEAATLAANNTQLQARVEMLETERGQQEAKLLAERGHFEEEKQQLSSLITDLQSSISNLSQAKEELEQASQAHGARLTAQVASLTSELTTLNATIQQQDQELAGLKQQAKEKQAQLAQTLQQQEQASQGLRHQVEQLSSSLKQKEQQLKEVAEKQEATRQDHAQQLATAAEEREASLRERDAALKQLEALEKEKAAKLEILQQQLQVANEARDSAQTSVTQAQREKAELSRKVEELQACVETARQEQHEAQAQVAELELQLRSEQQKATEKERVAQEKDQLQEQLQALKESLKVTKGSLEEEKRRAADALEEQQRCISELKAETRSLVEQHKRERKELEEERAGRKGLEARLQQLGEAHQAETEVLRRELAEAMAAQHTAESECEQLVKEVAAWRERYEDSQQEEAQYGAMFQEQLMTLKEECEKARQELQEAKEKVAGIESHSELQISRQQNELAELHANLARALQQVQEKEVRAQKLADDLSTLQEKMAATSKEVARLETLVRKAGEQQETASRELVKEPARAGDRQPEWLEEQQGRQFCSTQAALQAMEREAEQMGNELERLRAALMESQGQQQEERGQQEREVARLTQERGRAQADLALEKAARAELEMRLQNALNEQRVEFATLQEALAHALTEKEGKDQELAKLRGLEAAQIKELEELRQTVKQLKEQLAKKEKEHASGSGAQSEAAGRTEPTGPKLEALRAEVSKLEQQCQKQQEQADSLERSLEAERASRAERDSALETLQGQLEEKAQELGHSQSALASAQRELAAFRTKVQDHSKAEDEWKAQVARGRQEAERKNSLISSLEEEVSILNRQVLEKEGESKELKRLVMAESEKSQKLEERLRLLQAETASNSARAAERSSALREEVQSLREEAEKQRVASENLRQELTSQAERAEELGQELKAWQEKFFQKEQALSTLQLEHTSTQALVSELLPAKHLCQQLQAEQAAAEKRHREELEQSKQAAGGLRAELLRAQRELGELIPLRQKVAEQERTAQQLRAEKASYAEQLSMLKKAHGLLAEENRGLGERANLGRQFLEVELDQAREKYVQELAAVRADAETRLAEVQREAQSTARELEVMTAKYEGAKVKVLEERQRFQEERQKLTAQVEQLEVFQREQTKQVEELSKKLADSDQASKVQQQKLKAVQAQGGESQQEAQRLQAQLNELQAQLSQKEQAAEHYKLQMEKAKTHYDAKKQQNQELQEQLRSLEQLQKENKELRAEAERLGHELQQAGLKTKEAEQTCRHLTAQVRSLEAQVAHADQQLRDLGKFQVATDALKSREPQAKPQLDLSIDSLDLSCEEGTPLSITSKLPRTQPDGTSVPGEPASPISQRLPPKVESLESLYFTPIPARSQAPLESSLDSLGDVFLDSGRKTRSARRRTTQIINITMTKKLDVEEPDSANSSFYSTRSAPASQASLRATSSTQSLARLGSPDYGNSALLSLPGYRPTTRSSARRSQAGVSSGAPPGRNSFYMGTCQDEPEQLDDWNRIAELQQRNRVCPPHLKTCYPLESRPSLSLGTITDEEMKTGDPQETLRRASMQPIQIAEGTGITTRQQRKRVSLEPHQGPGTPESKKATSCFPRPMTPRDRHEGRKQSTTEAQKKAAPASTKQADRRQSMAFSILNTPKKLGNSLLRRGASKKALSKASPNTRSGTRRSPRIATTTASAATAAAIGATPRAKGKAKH
Particulars: GN=NUMA1 (Q14980).

Experiment [2] has as its target T2, proteins displaced from immobilized biotin-Cmpd 1 pulldowns (U2OS cell lysate) (Homo sapiens, UniProt Q86UE4).
T2 construct: endogenous in cells; host or cells: U2OS
Particulars: GN=MTDH (Q86UE4).

In experiment [3] the target is T3, proteins displaced from immobilized biotin-Cmpd 1 pulldowns (U2OS cell lysate) (Homo sapiens, UniProt Q15366).
T3 construct: endogenous in cells; host or cells: U2OS
T3 sequence (Q15366 whole entry): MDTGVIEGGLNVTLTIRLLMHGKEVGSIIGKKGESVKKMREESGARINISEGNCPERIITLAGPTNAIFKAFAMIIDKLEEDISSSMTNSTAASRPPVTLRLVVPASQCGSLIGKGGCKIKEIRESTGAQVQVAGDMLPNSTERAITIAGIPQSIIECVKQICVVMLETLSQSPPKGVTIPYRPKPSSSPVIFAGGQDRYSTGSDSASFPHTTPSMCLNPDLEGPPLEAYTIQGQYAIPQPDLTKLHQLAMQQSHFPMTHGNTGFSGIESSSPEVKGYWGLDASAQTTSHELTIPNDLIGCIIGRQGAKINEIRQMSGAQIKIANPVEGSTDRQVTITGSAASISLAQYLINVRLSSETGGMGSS
Particulars: GN=PCBP2 (Q15366).

In experiment [4] the target is T4, proteins displaced from immobilized biotin-Cmpd 1 pulldowns (U2OS cell lysate) (Homo sapiens, UniProt Q9UN81).
T4 construct: endogenous in cells; host or cells: U2OS
T4 sequence (Q9UN81 whole entry): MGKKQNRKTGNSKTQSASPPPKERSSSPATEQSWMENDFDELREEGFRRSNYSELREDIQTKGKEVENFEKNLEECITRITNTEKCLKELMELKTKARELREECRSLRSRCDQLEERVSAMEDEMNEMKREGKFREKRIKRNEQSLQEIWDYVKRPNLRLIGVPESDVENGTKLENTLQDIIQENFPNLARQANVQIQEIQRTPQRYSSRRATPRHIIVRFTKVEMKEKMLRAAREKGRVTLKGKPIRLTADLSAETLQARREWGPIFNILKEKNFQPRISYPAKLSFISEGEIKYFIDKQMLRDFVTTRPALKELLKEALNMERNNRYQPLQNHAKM
Particulars: GN=L1RE1 (Q9UN81).

For experiment [5], the target named is T5, proteins displaced from immobilized biotin-Cmpd 1 pulldowns (U2OS cell lysate) (Homo sapiens, UniProt P28370).
T5 construct: endogenous in cells; host or cells: U2OS
T5 sequence (P28370 whole entry): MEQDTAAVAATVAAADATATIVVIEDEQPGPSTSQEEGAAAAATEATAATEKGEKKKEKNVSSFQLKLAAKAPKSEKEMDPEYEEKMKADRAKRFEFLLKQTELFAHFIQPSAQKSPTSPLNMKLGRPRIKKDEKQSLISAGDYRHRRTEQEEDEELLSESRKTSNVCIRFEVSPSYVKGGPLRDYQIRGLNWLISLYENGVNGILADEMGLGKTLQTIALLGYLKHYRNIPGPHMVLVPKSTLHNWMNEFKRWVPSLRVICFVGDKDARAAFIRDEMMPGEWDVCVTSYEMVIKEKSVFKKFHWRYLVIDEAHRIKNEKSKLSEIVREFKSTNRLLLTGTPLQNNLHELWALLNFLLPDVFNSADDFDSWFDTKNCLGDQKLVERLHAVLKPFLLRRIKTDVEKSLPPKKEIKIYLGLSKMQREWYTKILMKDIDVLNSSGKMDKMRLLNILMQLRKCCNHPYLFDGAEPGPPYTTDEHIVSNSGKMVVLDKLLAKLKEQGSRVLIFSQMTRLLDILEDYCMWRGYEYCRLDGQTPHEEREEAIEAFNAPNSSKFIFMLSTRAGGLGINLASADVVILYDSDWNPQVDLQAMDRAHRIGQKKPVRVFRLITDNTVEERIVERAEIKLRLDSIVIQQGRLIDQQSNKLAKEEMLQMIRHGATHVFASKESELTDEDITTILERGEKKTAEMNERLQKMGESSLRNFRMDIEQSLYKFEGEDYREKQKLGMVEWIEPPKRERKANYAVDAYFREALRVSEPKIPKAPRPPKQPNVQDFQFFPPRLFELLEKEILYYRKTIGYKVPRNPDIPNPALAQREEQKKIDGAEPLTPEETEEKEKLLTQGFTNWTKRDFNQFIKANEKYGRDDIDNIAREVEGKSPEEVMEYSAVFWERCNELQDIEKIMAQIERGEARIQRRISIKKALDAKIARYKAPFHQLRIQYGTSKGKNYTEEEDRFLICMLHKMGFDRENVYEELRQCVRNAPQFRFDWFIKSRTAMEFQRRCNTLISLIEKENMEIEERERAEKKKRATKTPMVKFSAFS
Particulars: GN=SMARCA1 (P28370).

Experiment [6] addresses T6, proteins displaced from immobilized biotin-Cmpd 1 pulldowns (U2OS cell lysate) (Homo sapiens, UniProt Q9Y5B9).
T6 construct: endogenous in cells; host or cells: U2OS
Particulars: GN=SUPT16H (Q9Y5B9).

Experiment [7] addresses T7, proteins displaced from immobilized biotin-Cmpd 1 pulldowns (U2OS cell lysate) (Homo sapiens, UniProt Q6ZVX7).
T7 construct: endogenous in cells; host or cells: U2OS
Particulars: GN=NCCRP1 (Q6ZVX7).

For experiment [8], the target named is T8, proteins displaced from immobilized biotin-Cmpd 1 pulldowns (U2OS cell lysate) (Homo sapiens, UniProt Q9NR12).
T8 construct: endogenous in cells; host or cells: U2OS
Particulars: GN=PDLIM7 (Q9NR12).

The target of experiment [9] is T9, proteins displaced from immobilized biotin-Cmpd 1 pulldowns (U2OS cell lysate) (Homo sapiens, UniProt P20042).
T9 construct: endogenous in cells; host or cells: U2OS
T9 sequence (P20042 whole entry): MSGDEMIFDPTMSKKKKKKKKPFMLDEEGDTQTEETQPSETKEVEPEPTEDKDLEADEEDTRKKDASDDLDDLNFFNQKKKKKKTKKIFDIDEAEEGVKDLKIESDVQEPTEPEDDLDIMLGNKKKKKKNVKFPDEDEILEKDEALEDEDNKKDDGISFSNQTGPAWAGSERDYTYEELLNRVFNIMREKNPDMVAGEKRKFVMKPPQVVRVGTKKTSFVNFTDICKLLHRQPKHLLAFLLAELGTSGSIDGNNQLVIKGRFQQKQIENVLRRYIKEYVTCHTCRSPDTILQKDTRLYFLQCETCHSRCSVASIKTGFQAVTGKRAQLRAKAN
Particulars: GN=EIF2S2 (P20042).

The target of experiment [10] is T10, proteins displaced from immobilized biotin-Cmpd 1 pulldowns (U2OS cell lysate) (Homo sapiens, UniProt P13639).
T10 construct: endogenous in cells; host or cells: U2OS
Particulars: GN=EEF2 (P13639).

Values joined by “and” are separate entries in the source; they are usually repeats but may differ in a detail not shown here. Equal values may be shown once.

T7 sequence (Q6ZVX7 whole entry): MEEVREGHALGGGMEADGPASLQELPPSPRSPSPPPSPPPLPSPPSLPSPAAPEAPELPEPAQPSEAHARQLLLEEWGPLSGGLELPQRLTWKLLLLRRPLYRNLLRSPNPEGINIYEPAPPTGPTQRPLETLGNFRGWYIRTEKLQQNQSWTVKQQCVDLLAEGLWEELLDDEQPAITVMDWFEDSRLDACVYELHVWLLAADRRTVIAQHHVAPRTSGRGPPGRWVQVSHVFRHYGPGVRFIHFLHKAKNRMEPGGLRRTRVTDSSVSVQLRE
T2 sequence (Q86UE4 whole entry): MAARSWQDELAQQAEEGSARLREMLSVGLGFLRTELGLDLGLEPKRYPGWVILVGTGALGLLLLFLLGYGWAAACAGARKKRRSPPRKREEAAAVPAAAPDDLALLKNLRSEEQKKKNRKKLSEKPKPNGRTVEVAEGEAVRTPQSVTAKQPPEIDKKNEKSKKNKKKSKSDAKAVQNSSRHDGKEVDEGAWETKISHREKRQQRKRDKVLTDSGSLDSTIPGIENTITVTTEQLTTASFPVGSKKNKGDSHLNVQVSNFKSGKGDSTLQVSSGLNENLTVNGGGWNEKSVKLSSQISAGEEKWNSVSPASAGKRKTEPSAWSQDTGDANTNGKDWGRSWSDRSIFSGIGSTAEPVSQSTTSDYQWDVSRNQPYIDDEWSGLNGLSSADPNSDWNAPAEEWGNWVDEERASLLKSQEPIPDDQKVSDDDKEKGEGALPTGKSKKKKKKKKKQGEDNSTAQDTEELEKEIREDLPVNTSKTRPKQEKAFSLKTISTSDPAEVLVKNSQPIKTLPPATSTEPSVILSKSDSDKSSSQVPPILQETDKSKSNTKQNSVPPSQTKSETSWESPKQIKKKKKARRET

Consider `Cn1c2c(c(=N)c3c1CCC3)CCC2` [Compound 1, 4-methyl-2,3,4,5,6,7-hexahydrodicyclopenta[b,e]pyridin-8(1H)-imine], for which the Difference was 1.264 in [1] (Cmpd minus DMSO, -LOG(P-value) 0.722853); 0.4116 in experiment [2] (Cmpd minus DMSO, -LOG(P-value) 1.04359); -2.733 in [3] (Cmpd minus DMSO, -LOG(P-value) 0.939549); 1.653 in [4] (Cmpd minus DMSO, -LOG(P-value) 0.981964); 1.73 in [5] (Cmpd minus DMSO, -LOG(P-value) 1.24318); 1.168 in experiment [6] (Cmpd minus DMSO, -LOG(P-value) 1.35125). For the same compound, the Difference in [7] (Cmpd minus DMSO, -LOG(P-value) 1.30206) is given as -3.138; in [8] (Cmpd minus DMSO, -LOG(P-value) 0.715156), 2.317; in experiment [9] (Cmpd minus DMSO, -LOG(P-value) 0.750637), -2.049; in [10] (Cmpd minus DMSO, -LOG(P-value) 1.71036) it was -0.7791. Besides, the “iBAQ Cmpd” value in experiment [1] (replicates 1-3) is 20.9325 and 19.3521 and 19.3092; in experiment [2] (replicates 1-3), 19.4014 and 19.227 and 18.8879; in experiment [3] (replicates 1-3), 15.8606 and 15.1154 and 18.8903; in experiment [4] (replicates 1-3) it was 17.9091 and 17.4238 and 17.5156; in experiment [5] (replicates 1-3), 17.0232 and 15.8844 and 17.1364; in experiment [6] (replicates 1-3) it was 20.1986 and 19.3251 and 19.6735. For the same compound, the “iBAQ Cmpd” value in experiment [7] (replicates 1-3) was 15.2988 and 15.7784 and 15.638; in experiment [8] (replicates 1-3) it was 18.0201 and 21.1113 and 16.886; in experiment [9] (replicates 1-3) it was 14.3581 and 16.9929 and 16.8192; in experiment [10] (replicates 1-3), 17.772 and 17.7165 and 17.939.
